Reference: PubChem BioAssay (NCI)
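Interpolation was linear, between the two tested concentrations surrounding the appropriate level; five concentrations were tested over 48 hours in 96-well plates. Here, GI50 denotes the concentration required for 50% inhibition of growth. TGI is the concentration that stops growth completely.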

Tests used:
Assay in all cases: growth of human tumour cells (NCI), 48 h
[1] = tested on: MOLT-4 leukemia
[2] = tested on: HS 578T breast
[3] = tested on: SF-268 CNS
[4] = tested on: COLO 205 colon
[5] = tested on: NCI/ADR-RES ovarian
[6] = tested on: A549 NSCLC
[7] = tested on: SF-295 CNS
[8] = tested on: T-47D breast
[9] = tested on: MDA-MB-435
[10] = tested on: SK-MEL-5 melanoma
[11] = tested on: K-562 leukemia
[12] = tested on: SF-539 CNS
[13] = tested on: CCRF-CEM leukemia
[14] = tested on: SW-620 colon
[15] = tested on: HOP-62 NSCLC
[16] = tested on: RXF 393 renal
[17] = tested on: MDA-MB-231 breast
[18] = tested on: CAKI-1 renal
[19] = tested on: OVCAR-4 ovarian
[20] = tested on: NCI-H522 lung
[21] = tested on: OVCAR-3 ovarian
[22] = tested on: MCF7 breast
[23] = tested on: 786-0 renal
[24] = tested on: U251 CNS
[25] = tested on: MALME-3M melanoma
[26] = tested on: EKVX NSCLC
[27] = tested on: SK-MEL-2 melanoma
[28] = tested on: SK-OV-3 ovarian
[29] = tested on: SN12C renal
[30] = tested on: DU-145 prostate
[31] = tested on: UACC-257 melanoma
[32] = tested on: HT29 colon
[33] = tested on: ACHN renal
[34] = tested on: HOP-92 NSCLC
[35] = tested on: A498 renal
[36] = tested on: OVCAR-8 ovarian
[37] = tested on: SK-MEL-28 melanoma
[38] = tested on: KM12 colon
[39] = tested on: SNB-75 CNS
[40] = tested on: SR leukemia
[41] = tested on: NCI-H226 lung
[42] = tested on: SNB-19 CNS
[43] = tested on: LOX IMVI melanoma
[44] = tested on: HL-60(TB) leukemia
[45] = tested on: M14 melanoma
[46] = tested on: HCT-15 colon
[47] = tested on: TK-10 renal
[48] = tested on: OVCAR-5 ovarian
[49] = tested on: PC-3 prostate
[50] = tested on: IGROV1 ovarian
[51] = tested on: NCI-H460 lung
[52] = tested on: UO-31 renal
[53] = tested on: HCC-2998 colon
[54] = tested on: HCT-116 colon
[55] = tested on: BT-549 breast
[56] = tested on: RPMI-8226 leukemia
[57] = tested on: UACC-62 melanoma

`O=C(CSc1nc2ccccc2c(=O)n1-c1ccc(Cl)cc1)N/N=C/c1ccc(Oc2ccc(Cl)cc2)cc1` gave a GI50 [1] of 2.29 µM, a TGI [1] of 9.23 µM and a GI50 [2] of 2.17 µM. For the same molecule, the TGI [2] was 6.36 µM, the GI50 [3] was 3.85 µM and the TGI [3] was 23.9 µM. It also gave a GI50 [4] of 2.79 µM, a TGI [4] of 8.74 µM and a GI50 [5] of 1.64 µM. It also gave a TGI [5] of 3.56 µM, a GI50 [6] of 3.25 µM and a TGI [6] of 14 µM. For the same molecule, the GI50 [7] was 3.61 µM, the TGI [7] was 13.3 µM and the GI50 [8] was 2.09 µM. The TGI [8] was 5.76 µM, the GI50 [9] was 1.93 µM and the TGI [9] was 4.56 µM. It also gave a GI50 [10] of 1.75 µM, a TGI [10] of 3.51 µM and a GI50 [11] of 4.15 µM. The TGI [11] was 20.2 µM, the GI50 [12] was 2.54 µM and the TGI [12] was 6.32 µM. It also gave a GI50 [13] of 3.09 µM, a TGI [13] of 48.5 µM and a GI50 [14] of 1.81 µM. It also gave a TGI [14] of 7.84 µM, a GI50 [15] of 1.69 µM and a TGI [15] of 4.05 µM. For the same molecule, the GI50 [16] was 1.7 µM, the TGI [16] was 3.14 µM and the GI50 [17] was 1.79 µM. For the same molecule, the TGI [17] was 3.9 µM, the GI50 [18] was 3.06 µM and the TGI [18] was 12 µM. For the same molecule, the GI50 [19] was 1.89 µM, the TGI [19] was 4.57 µM and the GI50 [20] was 2.34 µM. The TGI [20] was 8.31 µM, the GI50 [21] was 2.75 µM and the TGI [21] was 9.55 µM. For the same molecule, the GI50 [22] was 2.01 µM, the TGI [22] was 5.5 µM and the GI50 [23] was 2.51 µM. For the same molecule, the TGI [23] was 6.42 µM, the GI50 [24] was 1.65 µM and the TGI [24] was 3.69 µM. For the same molecule, the GI50 [25] was 1.38 µM, the TGI [25] was 2.77 µM and the GI50 [26] was 3.1 µM. The TGI [26] was 13.9 µM, the GI50 [27] was 2.86 µM and the TGI [27] was 8.93 µM. For the same molecule, the GI50 [28] was 3.26 µM, the TGI [28] was 11.9 µM and the GI50 [29] was 1.74 µM. For the same molecule, the TGI [29] was 4.14 µM, the GI50 [30] was 3.52 µM and the TGI [30] was 20.4 µM. The GI50 [31] was 4.62 µM, the TGI [31] was 22.5 µM and the GI50 [32] was 2.14 µM. It also gave a TGI [32] of 11.1 µM, a GI50 [33] of 4.36 µM and a TGI [33] of 15.2 µM. For the same molecule, the GI50 [34] was 2.07 µM, the TGI [34] was 5.62 µM and the GI50 [35] was 1.94 µM. The TGI [35] was 4.35 µM, the GI50 [36] was 2.41 µM and the TGI [36] was 6.56 µM. The GI50 [37] was 1.51 µM, the TGI [37] was 3.01 µM and the GI50 [38] was 2.04 µM. For the same molecule, the TGI [38] was 5 µM, the GI50 [39] was 3.99 µM and the TGI [39] was 29.2 µM. For the same molecule, the GI50 [40] was 1.84 µM, the TGI [40] was 6.86 µM and the GI50 [41] was 2.46 µM. For the same molecule, the TGI [41] was 6.59 µM, the GI50 [42] was 3.36 µM and the TGI [42] was 12.7 µM. For the same molecule, the GI50 [43] was 1.29 µM, the TGI [43] was 2.59 µM and the GI50 [44] was 16 µM. It also gave a TGI [44] of 37 µM, a GI50 [45] of 1.58 µM and a TGI [45] of 3.47 µM. For the same molecule, the GI50 [46] was 2.41 µM, the TGI [46] was 7.49 µM and the GI50 [47] was 5.97 µM. The TGI [47] was 40.2 µM, the GI50 [48] was 2.27 µM and the TGI [48] was 6.44 µM. For the same molecule, the GI50 [49] was 2.58 µM, the TGI [49] was 9.32 µM and the GI50 [50] was 1.51 µM. The TGI [50] was 3.28 µM, the GI50 [51] was 0.788 µM and the TGI [51] was 2.6 µM. The GI50 [52] was 7.47 µM, the TGI [52] was 21.1 µM and the GI50 [53] was 1.92 µM. The TGI [53] was 3.81 µM, the GI50 [54] was 1.55 µM and the TGI [54] was 3.74 µM. The GI50 [55] was 3.28 µM, the TGI [55] was 12.2 µM and the GI50 [56] was 2.98 µM. For the same molecule, the TGI [56] was 15.8 µM, the GI50 [57] was 1.59 µM and the TGI [57] was 3.18 µM.
